Results published in patent US9603877B2, “Isolated nucleotide molecule and method of sensing and killing of pathogenic microorganism” (priority 2011, dated 2017).

What was measured:
[1] = test system: E. coli carrying pTetR-LasR-pLuxR-E7; test: Characterization of lysis device with 3OC12HSL (OD600 of E. coli carrying pTetR-LasR-pLuxR-E7); type: cell-based
Method: Characterization of Lysis Device with 3OC12HSL
Overnight cultures of pTetR-LasR-pLuxR-E7 (Top10) were diluted in supplemented M9 and harvested at an OD600 of 0.5. […] The plate was incubated at 37° C. with rapid shaking in a microplate reader (Biotek) and assayed for cell turbidity. Time-series absorbance at OD600 was obtained at intervals of 10 mins for a total run time of 6 hrs. The result was zeroed with supplemented M9 to remove background absorbance.
The system according to various embodiments was designed to release pyocin S5 through lysis upon detection of P. aeruginosa. To determine the lysis activity of the system, the behavior of the E7 lysis protein under the transcriptional control of the sensing device before integrating both the pyocin S5 and E7 genes into the system was characterized. […] To further confirm that the lysis activity may be sustained in the final system including pyocin S5, the morphology of E. coli containing the final system (i.e., pTetR-LasR-pLuxR-S5-pLuxR-E7; FIG. 1B) was monitored using FESEM.

[2] = molecular target: T1, Pseudomonas aeruginosa LasR, SEQ ID NO: 1 (UniProt: PSPA7_3898), in sensing device pTetR-LasR-pLuxR-GFP (Pseudomonas aeruginosa, UniProt P25084); test: Characterization/transfer function of the LasR sensing device (pTetR-LasR-pLuxR-GFP) with 3OC12HSL, GFP reporter in E. coli TOP10; type: cell-based, P. aeruginosa
T1 construct: expressed in transfected cells; host or cells: E. coli TOP10 (plasmid pTetR-LasR-pLuxR-GFP in pSB1A2)
T1 sequence (P25084 whole entry M144I): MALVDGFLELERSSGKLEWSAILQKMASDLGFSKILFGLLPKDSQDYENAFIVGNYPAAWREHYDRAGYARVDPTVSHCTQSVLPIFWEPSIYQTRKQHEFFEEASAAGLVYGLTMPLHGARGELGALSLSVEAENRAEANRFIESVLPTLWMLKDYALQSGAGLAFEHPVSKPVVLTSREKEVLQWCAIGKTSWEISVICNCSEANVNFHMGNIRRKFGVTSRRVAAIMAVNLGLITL
Method: Single colonies of pTetR-LasR-pLuxR-GFP (Top10) were each inoculated into 5 ml of pre-warmed supplemented M9 ampicillin for overnight culture in a shaking incubator at 37° C. After overnight growth, the cultures were diluted to OD600 of 0.002 and allowed to incubate further to OD600 of 0.5 or 5.0E7 cfu/ml under the same condition. […] The plate was incubated at 37° C. with rapid shaking in a microplate reader (Biotek) and assayed for green fluorescence. Time-series fluorescence and OD600 data were obtained at intervals of 10 mins for a total run time of 3 hrs. The measurement was zeroed with supplemented M9 to remove background fluorescence and OD600. A relative GFP production rate was derived as a ratio of background subtracted green fluorescence to OD600 value.
The four parameters (A, B, C, n) were estimated to obtain the best fit curve by performing a non-linear curve fitting using the experimental results. This curve fitting was performed using MATLAB Curve Fitting Toolbox (The Mathworks, Natwick, Mass., USA).

For CCCCCCCCCC(=O)CC(=O)N[C@H]1CCOC1=O [3OC12HSL, N-3-oxododecanoyl homoserine lactone], the “growth/lysis of E. coli (OD600) at 1.0E-6 and 1.0E-4M 3OC12HSL” value ([1]; 1.0E-6 and 1.0E-4M 3OC12HSL) was “significant reduction in optical density”, the “growth/lysis of E. coli (OD600) at 1.0E-8M 3OC12HSL” value ([1]; 1.0E-8M 3OC12HSL) was “no noticeable transition into a lysis state” and the minimal effective concentration ([1]; Escherichia coli, 2 h, read-out: concentration causing observable cell lysis) was no less than 1 µM. For the same molecule, the “input concentration at which the sensing device saturated” value ([2]; Hill model, >3.3E-7M but <1.0E-6M) was greater than 330 nM, the “maximum output (GFP production rate) at saturation” value ([2]; Hill model, input concentration >3.3E-7M but <1.0E-6M) was 1.96 RFU per OD per minute and the “concentration at which GFP production rate peaked” value ([2]; sharp increase beyond 1.0E-7M, sharp decline after peak) was 1000 nM.
